Results on 39 compounds are retold here after EP2818471A1, “Nitrogen bicyclic compounds as inhibitors for Scyl1 and Grk5” (Max-Planck-Gesellschaft zur Förderung der Wissenschaften …, priority 2013, dated 2014).

Structures are written as SMILES.

In general, Emax refers to the greatest response seen or fitted, relative to the assay's reference.

In the assay the test system is beta-TC6 cells. The experiment in a line: Insulin HTRF assay, relative activity Ar normalized to sunitinib. The class given is cell-based. To be noted: Mus musculus, normalized to positive control sunitinib (5 µM = 100%), Table 10. The gist of the method: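 Relative activity Ar was scaled between 0% and 100% controls, with sunitinib at 5 µM f.c. as reference. Insulin released by beta-TC6 cells was quantified by sandwich HTRF (Eu-cryptate/XL665 antibodies, 120 min RT). Cells had been seeded 24 or 48 h, then treated 2–4 h at 37°C in induction buffer, 0.5% DMSO.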
On to `CN(C)CCCOc1ccc(-c2nnc3ccc(-c4ccc(Cl)cc4)cn23)cc1` [compound 237, 3-[4-[6-(4-chlorophenyl)-[1,2,4]triazolo[4,3-a]pyridin-3-yl]phenoxy]-N,N-dimethyl-propan-1-amine], for which the Emax lay in the range of 20 to 50%.

`CN(C)CCCOc1ccc(-c2nnc3ccc(C#Cc4ccc(C(=O)N(C)C)cc4)cn23)cc1` [compound 238, 4-[2-[3-[4-[3-(dimethylamino)propoxy]phenyl]-[1,2,4]triazolo[4,3-a]pyridin-6-yl]ethynyl]-N,N-dimethyl-benzamide] showed a maximum response (Emax) of 20 to 50%.

The compound `COc1cc(C#Cc2ccc3nnc(-c4ccc(OCCCN(C)C)cc4)n3c2)cc(OC)c1` [compound 239, 3-[4-[6-[2-(3,5-dimethoxyphenyl)ethynyl]-[1,2,4]triazolo[4,3-a]pyridin-3-yl]phenoxy]-N,N-dimethyl-propan-1-amine] showed an Emax of 20 to 50%.

In turn, `CNC(=O)c1ccc(-c2ccc3nnc(-c4ccc(OCCCN(C)C)cc4)n3c2)cc1` [compound 240, 4-[3-[4-[3-(dimethylamino)propoxy]phenyl]-[1,2,4]triazolo[4,3-a]pyridin-6-yl]-N-methyl-benzamide] showed an Emax of 20 to 50%.

`CC(=O)Nc1cccc(-c2ccc3nnc(-c4ccc5nccnc5c4)n3c2)c1` [compound 241, N-[3-(3-quinoxalin-6-yl-[1,2,4]triazolo[4,3-a]pyridin-6-yl)phenyl]acetamide]: the Emax was in the range of 50 to 100%.

As for `CN(C)CCNC(=O)c1cccc(-c2ccc3nnc(-c4ccc5nccnc5c4)n3c2)c1` [compound 242, N-(2-dimethylaminoethyl)-3-(3-quinoxalin-6-yl-[1,2,4]triazolo[4,3-a]pyridin-6-yl)benzamide], the maximal effect (Emax) is ≥ 100%.

`CN1CCN(C(=O)c2cccc(-c3ccc4nnc(-c5ccc6nccnc6c5)n4c3)c2)CC1` [compound 243, (4-methylpiperazin-1-yl)-[3-(3-quinoxalin-6-yl-[1,2,4]triazolo[4,3-a]pyridin-6-yl)phenyl]methanone] displayed a maximal response (Emax) of 20 to 50%.

Consider `COc1cc(-c2ccc3nnc(-c4ccc5nccnc5c4)n3c2)ccc1O` [compound 244, 2-methoxy-4-(3-quinoxalin-6-yl-[1,2,4]triazolo[4,3-a]pyridin-6-yl)phenol], for which the Emax lay within 50 to 100%.

For the compound `c1cnc2cc(-c3nnc4ccc(-c5ccoc5)cn34)ccc2n1` [compound 245, 6-[6-(3-furyl)-[1,2,4]triazolo[4,3-a]pyridin-3-yl]quinoxaline], the Emax lay in the range of 50 to 100%.

Take `CN(C)C(=O)c1cccc(-c2ccc3nnc(-c4ccc5nccnc5c4)n3c2)c1` [compound 246, N,N-dimethyl-3-(3-quinoxalin-6-yl-[1,2,4]triazolo[4,3-a]pyridin-6-yl)benzamide]: the Emax lay within 50 to 100%.

`Oc1cccc(-c2ccc3nnc(-c4ccccn4)n3c2)c1` [compound 247, 3-[3-(2-pyridyl)-[1,2,4]triazolo[4,3-a]pyridin-6-yl]phenol] returned a maximal response (Emax) of 50 to 100%.

Turning to `OCc1cccc(-c2ccc3nnc(-c4ccccn4)n3c2)c1` [compound 248, [3-[3-(2-pyridyl)-[1,2,4]triazolo[4,3-a]pyridin-6-yl]phenyl]methanol], the Emax is 20 to 50%.

The compound `CS(=O)(=O)c1cccc(-c2ccc3nnc(-c4ccccn4)n3c2)c1` [compound 249, 6-(3-methylsulfonylphenyl)-3-(2-pyridyl)-[1,2,4]triazolo[4,3-a]pyridine] yielded an Emax of 20 to 50%.

Compound `COc1ccccc1CC(=O)Nc1cnc2cnc(-c3cccc(Cl)c3Cl)cn12` [compound 250, N-[6-(2,3-dichlorophenyl)imidazo[1,2-a]pyrazin-3-yl]-2-(2-methoxyphenyl)acetamide] returned an Emax of 20 to 50%.

In turn, `COc1cccc(CC(=O)Nc2cnc3cnc(-c4ccccc4CN(C)C)cn23)c1` [compound 252, N-[6-[2-(dimethylaminomethyl)phenyl]imidazo[1,2-a]pyrazin-3-yl]-2-(3-methoxyphenyl)acetamide] displayed an Emax of 20 to 50%.

With `CCCC/C=C/c1cn2c(NC(=O)Cc3cccc(OC)c3)cnc2cn1` [compound 253, N-[6-[(E)-hex-1-enyl]imidazo[1,2-a]pyrazin-3-yl]-2-(3-methoxyphenyl)acetamide], the Emax fell in the range of 10 to 20%.

With `COc1cccc(CC(=O)Nc2cnc3cnc(-c4ccc5[nH]ccc5c4)cn23)c1` [compound 254, N-[6-(1H-indol-5-yl)imidazo[1,2-a]pyrazin-3-yl]-2-(3-methoxyphenyl)acetamide], the Emax was 10 to 20%.

As for `COc1cccc(CC(=O)Nc2cnc3cnc(-c4ccc(Oc5ccccc5)cc4)cn23)c1` [compound 259, 2-(3-methoxyphenyl)-N-[6-(4-phenoxyphenyl)imidazo[1,2-a]pyrazin-3-yl]acetamide], the maximal effect (Emax) is 10 to 20%.

With `COc1cccc(CC(=O)Nc2cnc3cnc(-c4cccs4)cn23)c1` [compound 260, 2-(3-methoxyphenyl)-N-[6-(2-thienyl)imidazo[1,2-a]pyrazin-3-yl]acetamide], the Emax was in the range of 20 to 50%.

The compound `COc1cccc(CC(=O)Nc2cnc3cnc(-c4cnn(C)c4)cn23)c1` [compound 261, 2-(3-methoxyphenyl)-N-[6-(1-methylpyrazol-4-yl)imidazo[1,2-a]pyrazin-3-yl]acetamide] came in with an Emax of 10 to 20%.

As for `O=C(Nc1cnc2cnc(-c3ccsc3)cn12)c1cccs1` [compound 263, N-[6-(3-thienyl)imidazo[1,2-a]pyrazin-3-yl]thiophene-2-carboxamide], the Emax was in the range of 20 to 50%.

The compound `COc1ccccc1-c1cn2c(NC(=O)c3ccccc3)cnc2cn1` [compound 267, N-[6-(2-methoxyphenyl)imidazo[1,2-a]pyrazin-3-yl]benzamide] came in with an Emax of 20 to 50%.

`CN(C)c1cccc(-c2cn3c(NC(=O)c4ccccc4)cnc3cn2)c1` [compound 268, N-[6-[3-(dimethylamino)phenyl]imidazo[1,2-a]pyrazin-3-yl]benzamide] displayed an Emax of 50 to 100%.

For the compound `Nc1ccc(-c2cn3c(NC(=O)c4ccccc4)cnc3cn2)cc1` [compound 269, N-[6-(4-aminophenyl)imidazo[1,2-a]pyrazin-3-yl]benzamide], the Emax lay in the range of 20 to 50%.

Turning to `CC(C(=O)Nc1cnc2cnc(-c3ccc4c(c3)OCO4)cn12)c1ccccc1` (stereo not drawn) [compound 270, N-[6-(1,3-benzodioxol-5-yl)imidazo[1,2-a]pyrazin-3-yl]-2-phenyl-propanamide], the Emax lay within 20 to 50%.

As to `CC(C(=O)Nc1cnc2cnc(-c3cccc([N+](=O)[O-])c3)cn12)c1ccccc1` (stereo not drawn) [compound 271, N-[6-(3-nitrophenyl)imidazo[1,2-a]pyrazin-3-yl]-2-phenyl-propanamide], the maximal effect (Emax) lay within 20 to 50%.

Regarding `O=C(Nc1cnc2cnc(-c3cnn(Cc4ccccc4)c3)cn12)C1CCC1` [compound 273, N-[6-(1-benzylpyrazol-4-yl)imidazo[1,2-a]pyrazin-3-yl]cyclobutanecarboxamide], the Emax lay in the range of 20 to 50%.

In turn, `CC(=O)c1cccc(-c2cn3c(NC(=O)CC4CC4)cnc3cn2)c1` [compound 274, N-[6-(3-acetylphenyl)imidazo[1,2-a]pyrazin-3-yl]-2-cyclopropyl-acetamide] yielded an Emax of 20 to 50%.

`O=C(Nc1cnc2cnc(-c3ccc4ccccc4c3)cn12)C1CCOC1` (stereo not drawn) [compound 275, N-[6-(2-naphthyl)imidazo[1,2-a]pyrazin-3-yl]tetrahydrofuran-3-carboxamide]: the Emax lay within 10 to 20%.

On to `Nc1cccc(-c2cn3c(NC(=O)Cc4ccc(F)c(F)c4)cnc3cn2)c1` [compound 277, N-[6-(3-aminophenyl)imidazo[1,2-a]pyrazin-3-yl]-2-(3,4-difluorophenyl)acetamide], for which the Emax was 10 to 20%.

With `O=C(Cc1ccsc1)Nc1cnc2cnc(-c3ccccc3F)cn12` [compound 278, N-[6-(2-fluorophenyl)imidazo[1,2-a]pyrazin-3-yl]-2-(3-thienyl)acetamide], the Emax fell in the range of 10 to 20%.

Consider `COc1cccc(-c2cn3c(NC(=O)Cc4ccsc4)cnc3cn2)c1` [compound 279, N-[6-(3-methoxyphenyl)imidazo[1,2-a]pyrazin-3-yl]-2-(3-thienyl)acetamide], for which the Emax was 20 to 50%.

In turn, `CN(C)CCCOc1ccc(-c2cn3c(-c4ccc(N(C)C)cc4)cnc3cn2)cn1` [compound 281, 4-[6-[6-[3-(dimethylamino)propoxy]-3-pyridyl]imidazo[1,2-a]pyrazin-3-yl]-N,N-dimethyl-aniline] yielded an Emax of 50 to 100%.

`CN(C)c1ccc(-c2cnc3cnc(-c4ccc(NCCN5CCOCC5)nc4)cn23)cc1` [compound 282, 5-[3-(4-dimethylaminophenyl)imidazo[1,2-a]pyrazin-6-yl]-N-(2-morpholinoethyl)pyridin-2-amine] returned an Emax of 50 to 100%.

For the compound `CN(C)c1ccc(-c2cnc3cnc(-c4ccccc4N(C)C)cn23)cc1` [compound 283, 2-[3-(4-dimethylaminophenyl)imidazo[1,2-a]pyrazin-6-yl]-N,N-dimethyl-aniline], the Emax lay within 20 to 50%.

Consider `CN(C)c1ccc(-c2cnc3cnc(-c4ccc(O)cc4)cn23)cc1` [compound 284, 4-[3-(4-dimethylaminophenyl)imidazo[1,2-a]pyrazin-6-yl]phenol], for which the Emax fell in the range of 50 to 100%.

On to `CN(C)CCCNC(=O)c1ccc(-c2cn3c(-c4ccc(N(C)C)cc4)cnc3cn2)cc1` [compound 285, 4-[3-(4-dimethylaminophenyl)imidazo[1,2-a]pyrazin-6-yl]-N-[3-(dimethylamino)propyl]benzamide], for which the Emax lay within 50 to 100%.

Regarding `CN(C)c1ccc(-c2cnc3cnc(-c4cccc(C(=O)NCCO)c4)cn23)cc1` [compound 286, 3-[3-(4-dimethylaminophenyl)imidazo[1,2-a]pyrazin-6-yl]-N-(2-hydroxyethyl)benzamide], the Emax fell in the range of 20 to 50%.

Consider `CN(C)c1ccc(-c2cnc3cnc(-c4ccc(CO)cc4)cn23)cc1` [compound 287, [4-[3-(4-dimethylaminophenyl)imidazo[1,2-a]pyrazin-6-yl]phenyl]methanol], for which the Emax was in the range of 50 to 100%.
